The text below walks through data of PubChem BioAssay AID328 (DTP/NCI, 2004).

Several values for one entry are separate records, joined by “and”; a condition that tells them apart may be missing. Identical values can stand only once. Toxic doses and inconclusive results are not listed.

The subject of the assay is BDF1 mice, P388 leukemia ip, median survival T/C. The assay is described as follows: NCI In Vivo Anticancer Drug Screen. Data for tumor model P388 Leukemia (intraperitoneal) in B6D2F1 (BDF1) mice. The settings on record: endpoint: median survival time, higher = longer survival. In short, it runs like this: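 Each value expresses how treatment altered survival: treated-mouse outcome over vehicle-mouse outcome, both groups bearing the transplanted tumour.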

Where [1] appears, read: dose: 6.25 mg/kg/injection, schedule: Q01DX009 (ip), vehicle: saline with Tween-80.
The mark [2] stands for this setting: dose: 12.5 mg/kg/injection, schedule: Q01DX009 (ip), vehicle: saline with Tween-80.
[3] abbreviates: dose: 25.0 mg/kg/injection, schedule: Q01DX009 (ip), vehicle: saline with Tween-80.
Where [4] appears, read: dose: 100.0 mg/kg/injection, schedule: Q04DX003 (ip), vehicle: saline with Tween-80.
Where [5] appears, read: dose: 200.0 mg/kg/injection, schedule: Q04DX003 (ip), vehicle: saline with Tween-80.
[6] abbreviates: dose: 400.0 mg/kg/injection, schedule: Q04DX003 (ip), vehicle: saline with Tween-80.
[7] abbreviates: dose: 100.0 mg/kg/injection, schedule: Q01DX009 (ip), vehicle: saline.
Setting [8] is: dose: 200.0 mg/kg/injection, schedule: Q01DX009 (ip), vehicle: saline.
The mark [9] stands for this setting: dose: 50.0 mg/kg/injection, schedule: Q01DX009 (ip), vehicle: saline with Tween-80.

As to `Cc1ccc2c(Nc3ccc(NS(C)(=O)=O)cc3)c3ccccc3nc2c1C`, the T/C was 156 % of control (dose: 1.78 mg/kg/injection, schedule: Q01DX009 (ip), vehicle: saline with Tween-80); 167 % of control (dose: 4.0 mg/kg/injection, schedule: Q01DX009 (ip), vehicle: saline with Tween-80); 196 % of control (dose: 5.56 mg/kg/injection, schedule: Q01DX009 (ip), vehicle: saline with Tween-80); 187 % of control (dose: 6.0 mg/kg/injection, schedule: Q01DX009 (ip), vehicle: saline with Tween-80); 185 % of control under setting [1]; 186 % of control (dose: 8.33 mg/kg/injection, schedule: Q01DX009 (ip), vehicle: saline with Tween-80). The T/C (dose: 8.8 mg/kg/injection, schedule: Q04DX003 (ip), vehicle: saline with Tween-80) is 118 % of control; the T/C under setting [2] is 233 % of control and 247 % of control; the T/C (dose: 13.2 mg/kg/injection, schedule: Q04DX003 (ip), vehicle: saline with Tween-80) was 154 % of control; the T/C (dose: 18.7 mg/kg/injection, schedule: Q01DX009 (ip), vehicle: saline with Tween-80) was 288 % of control; the T/C (dose: 20.0 mg/kg/injection, schedule: Q01DX009 (ip), vehicle: other) was 219 % of control; the T/C (dose: 20.0 mg/kg/injection, schedule: Q04DX003 (ip), vehicle: saline with Tween-80) was 168 % of control. The T/C is, setting by setting: (dose: 22.0 mg/kg/injection, schedule: Q04DX003 (ip), vehicle: saline with Tween-80) 186 % of control; under setting [3], 114 % of control; (dose: 30.0 mg/kg/injection, schedule: Q04DX003 (ip), vehicle: saline with Tween-80) 177 % of control; (dose: 33.0 mg/kg/injection, schedule: Q04DX003 (ip), vehicle: saline with Tween-80) 227 % of control; (dose: 50.0 mg/kg/injection, schedule: Q04DX003 (ip), vehicle: saline with Tween-80) 231 % of control; (dose: 75.0 mg/kg/injection, schedule: Q04DX003 (ip), vehicle: saline with Tween-80) 218 % of control. Moreover, the T/C was 259 % of control under setting [4] and 272 % of control under setting [5].
For `CC1C[N+](C)(C)NC1=O` (stereo not drawn), the T/C by setting is: (dose: 50.0 mg/kg/injection, schedule: Q01DX001 (ip), vehicle: saline) 100 % of control; (dose: 200.0 mg/kg/injection, schedule: Q01DX001 (ip), vehicle: saline) 100 % of control.
On to `Cc1ccc(Sc2cccc3c(C)c4cccc5c4c(c23)C[S+]5c2ccc(C)cc2)cc1` (stereo not drawn), for which the T/C by setting is: (dose: 1.5 mg/kg/injection, schedule: Q04DX003 (ip), vehicle: saline with Tween-80) 100 % of control; (dose: 3.0 mg/kg/injection, schedule: Q04DX003 (ip), vehicle: saline with Tween-80) 104 % of control; (dose: 6.0 mg/kg/injection, schedule: Q04DX003 (ip), vehicle: saline with Tween-80) 100 % of control.
With `COCCCNP(=S)(N1CC1)N1CC1`, the T/C was 163 % of control and 195 % of control (dose: 16.5 mg/kg/injection, schedule: Q04DX003 (ip), vehicle: saline with Tween-80); 181 % of control and 218 % of control (dose: 25.0 mg/kg/injection, schedule: Q04DX003 (ip), vehicle: saline with Tween-80); 104 % of control and 109 % of control (dose: 37.5 mg/kg/injection, schedule: Q04DX003 (ip), vehicle: saline with Tween-80).
For the compound `CSc1ncnc2nc[nH]c12`, the T/C was 100 % of control (dose: 25.0 mg/kg/injection, schedule: Q01DX010 (ip), vehicle: saline); 100 % of control (dose: 50.0 mg/kg/injection, schedule: Q01DX010 (ip), vehicle: saline); 95 % of control and 100 % of control (dose: 100.0 mg/kg/injection, schedule: Q01DX010 (ip), vehicle: saline); 104 % of control and 105 % of control (dose: 200.0 mg/kg/injection, schedule: Q01DX010 (ip), vehicle: saline).
As to `Nc1cc(N)c([N+](=O)[O-])cc1[N+](=O)[O-]`, the T/C by setting is: (dose: 100.0 mg/kg/injection, schedule: Q01DX009 (ip), vehicle: saline with Tween-80) 90 % of control; (dose: 200.0 mg/kg/injection, schedule: Q01DX009 (ip), vehicle: saline with Tween-80) 100 % of control; (dose: 400.0 mg/kg/injection, schedule: Q01DX009 (ip), vehicle: saline with Tween-80) 104 % of control.
As to `Cc1ccc(C[N+](C)(C)C)c2ccccc12`, the T/C (dose: 12.5 mg/kg/injection, schedule: Q04DX003 (ip), vehicle: saline) is 107 % of control; the T/C (dose: 25.0 mg/kg/injection, schedule: Q04DX003 (ip), vehicle: saline) is 105 % of control; the T/C (dose: 50.0 mg/kg/injection, schedule: Q04DX003 (ip), vehicle: saline) is 96 % of control.
As for `COC(=O)C1CC(O)CN1C(=O)c1c2nc3c(C(=O)N4CC(O)CC4C(=O)OC)ccc(C)c3oc-2c(C)c(=O)c1N` (stereo not drawn), the T/C was 96 % of control under setting [4], 100 % of control under setting [5] and 114 % of control under setting [6].
With `Nc1n[nH]c(N)n1`, the T/C is, setting by setting: under setting [7], 113 % of control; under setting [8], 113 % of control.
Regarding `Nc1nc(N)c2nc(SC34CC5CC(CC(C5)C3)C4)c(N)nc2n1`, the T/C is, setting by setting: under setting [4], 97 % of control; under setting [5], 88 % of control; under setting [6], 94 % of control.
With `C=C1C(=O)OC2CC(C)C3C4OC4C(O)C3(C)C(O)C12` (stereo not drawn), the T/C is 100 % of control (dose: 6.25 mg/kg/injection, schedule: Q01DX009 (ip), vehicle: saline); 111 % of control (dose: 9.38 mg/kg/injection, schedule: Q01DX009 (ip), vehicle: saline); 100 % of control (dose: 12.5 mg/kg/injection, schedule: Q01DX009 (ip), vehicle: saline); 101 % of control (dose: 16.5 mg/kg/injection, schedule: Q01DX009 (ip), vehicle: saline); 120 % of control (dose: 18.75 mg/kg/injection, schedule: Q01DX009 (ip), vehicle: saline); 104 % of control and 108 % of control (dose: 25.0 mg/kg/injection, schedule: Q01DX009 (ip), vehicle: saline). For the same compound, the T/C runs as follows: (dose: 37.5 mg/kg/injection, schedule: Q01DX009 (ip), vehicle: saline) 112 % of control; (dose: 56.25 mg/kg/injection, schedule: Q01DX009 (ip), vehicle: saline) 110 % of control.
For the compound `Cn1c2ccccc2c(=S)c2c(O)cc3c(c21)C=CC(C)(C)O3`, the T/C (dose: 50.0 mg/kg/injection, schedule: Q01DX005 (ip), vehicle: saline with Tween-80) was 89 % of control; the T/C (dose: 100.0 mg/kg/injection, schedule: Q01DX005 (ip), vehicle: saline with Tween-80) is 90 % of control; the T/C (dose: 200.0 mg/kg/injection, schedule: Q01DX005 (ip), vehicle: saline with Tween-80) was 89 % of control.
Turning to `C/C(c1nc(N)nc(N)c1-c1ccc(Cl)cc1)=[N+](\C)[O-]`, the T/C is, setting by setting: (dose: 100.0 mg/kg/injection, schedule: Q01DX001 (ip), vehicle: saline with Tween-80) 95 % of control; (dose: 200.0 mg/kg/injection, schedule: Q01DX001 (ip), vehicle: saline with Tween-80) 104 % of control; (dose: 400.0 mg/kg/injection, schedule: Q01DX001 (ip), vehicle: saline with Tween-80) 97 % of control.
Consider `[N-]=[N+]=NC(=O)c1ccccn1`, for which the T/C under setting [3] is 101 % of control.
For the compound `CC1CC2C(CC1O)C2(C)C` (stereo not drawn), the T/C reads like this: under setting [2], 100 % of control; under setting [3], 95 % of control; under setting [9], 109 % of control; (dose: 100.0 mg/kg/injection, schedule: Q04DX003 (ip), vehicle: saline sonified) 111 % of control; (dose: 200.0 mg/kg/injection, schedule: Q04DX003 (ip), vehicle: saline sonified) 111 % of control; (dose: 400.0 mg/kg/injection, schedule: Q04DX003 (ip), vehicle: saline sonified) 100 % of control.
In the case of `CCC(C)(CC(=O)O)CC(=O)O`, the T/C was 95 % of control (dose: 3.12 mg/kg/injection, schedule: Q01DX009 (ip), vehicle: saline with Tween-80); 112 % of control under setting [1]; 116 % of control under setting [2]; 87 % of control under setting [3]; 87 % of control under setting [9]; 110 % of control (dose: 100.0 mg/kg/injection, schedule: Q04DX003 (ip), vehicle: saline). Besides, the T/C reads like this: (dose: 200.0 mg/kg/injection, schedule: Q04DX003 (ip), vehicle: saline) 120 % of control; (dose: 400.0 mg/kg/injection, schedule: Q04DX003 (ip), vehicle: saline) 120 % of control.
For the compound `CCCCOP1(=O)N(C)CCN1C`, the T/C was 102 % of control (dose: 50.0 mg/kg/injection, schedule: Q01DX009 (ip), vehicle: saline); 105 % of control under setting [7]; 102 % of control under setting [8].
